The text below walks through data of patent publication US20250221988A1 (Cullgen (Shanghai), Inc., priority 2022, published 2025).

Read-outs that look alike come from different tables or passages of the source. A value given as a limit tells only on which side of the number the result lay.

Experiment [1] relates to MOLM-13 cells. Briefly: Cell viability assay (CellTiter-Glo) in MOLM-13 cells. The class given is cell-based. (ATP-based viability assays read luminescence as a measure of living cells.)
For experiment [2], the system named is MV4;11 cells. Nature of the experiment: Cell viability assay (CellTiter-Glo) in MV4;11 cells. The note with it: read-out: MV4. The class given is cell-based. The method, boiled down:
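5000 cells/well in RPMI 1640 or DMEM with 10% FBS, treated with 8- or 12-point 3-fold compound dilutions, with or without gilteritinib (10 nM for MV4;11, 20 nM for MOLM-13). Viability by CellTiter-Glo after three days; IC50 by nonlinear least-squares regression.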

The mark [3] stands for this setting: Homo sapiens, 72 h, MOLM-13 cells, compound alone, three days, read-out: MOLM-13 IC50.
[4] abbreviates: MOLM-13 cells, with gilteritinib, three days, read-out: MOLM-13 IC50 (nM) + 10 nM Gil.
Where [5] appears, read: Homo sapiens, MV4-11, 72 h, MV4;11 cells, compound alone, three days, 11 IC50.
Where [6] appears, read: MV4;11 cells, with 10 nM gilteritinib, three days, 11 IC50 (nM) + 10 nM Gil.
Setting [7] is: Homo sapiens, MOLM-13, 72 h, read-out: MOLM-13 IC50 (nM).
[8] abbreviates: read-out: MOLM-13 IC50 (nM) + 10 nM Gil, MOLM-13 cells, with gilteritinib, three days.
[9] abbreviates: Homo sapiens, MV4-11, 72 h, 11 IC50 (nM).
Setting [10] is: 11 IC50 (nM) + 10 nM Gil, MV4;11 cells, with 10 nM gilteritinib, three days.

Consider `O=C1CCC(N2C(=O)c3ccc(NCCC[C@H]4C[C@H](n5cc(-c6nccc7c6NCCC7)c(C6CC6)n5)C4)cc3C2=O)C(=O)N1` (stereo partly drawn) [GS-685, 5-((3-(Trans-3-(3-cyclopropyl-4-(1,2,3,4-tetrahydro-1,7-naphthyridin-8-yl)-1H-pyrazol-1-yl)cyclobutyl)propyl)amino)-2-(2,6-dioxopiperidin-3-yl)isoindoline-1,3-dione], for which the IC50 is above 1000 nM in experiment [1] (setting [3]), 100 to 1000 nM in experiment [1] (setting [4]), above 1000 nM in experiment [2] (setting [5]) and 100 to 1000 nM in experiment [2] (setting [6]).
Regarding `O=C1CCC(N2C(=O)c3ccc(NC[C@H]4C[C@H](n5cc(-c6ccc7c(n6)CCC7O)c(C6CC6)n5)C4)cc3C2=O)C(=O)N1` (stereo partly drawn) [GS-705, 5-(((Trans-3-(3-cyclopropyl-4-(5-hydroxy-6,7-dihydro-5H-cyclopenta[b]pyridin-2-yl)-1H-pyrazol-1-yl)cyclobutyl)methyl)amino)-2-(2,6-dioxopiperidin-3-yl)isoindoline-1,3-dione], the IC50 in experiment [1] (setting [3]) is 100 to 1000 nM; in experiment [1] (setting [4]), 100 to 1000 nM; in experiment [2] (setting [5]), above 1000 nM; in experiment [2] (setting [6]), 100 to 1000 nM.
Consider `O=C1CCC(N2C(=O)c3ccc(NC[C@H]4C[C@H](n5cc(-n6ncc7ccccc76)c(C6CC6)n5)C4)cc3C2=O)C(=O)N1` (stereo partly drawn) [GS-736, 5-(((Trans-3-(3-cyclopropyl-4-(1H-indazol-1-yl)-1H-pyrazol-1-yl)cyclobutyl)methyl)amino)-2-(2,6-dioxopiperidin-3-yl)isoindoline-1,3-dione], for which the IC50 is 10 to 100 nM in experiment [1] (setting [7]), below 10 nM in experiment [1] (setting [8]), below 10 nM in experiment [2] (setting [9]) and below 10 nM in experiment [2] (setting [10]).
For the compound `O=C1CCC(N2C(=O)c3ccc(NC[C@H]4C[C@H](n5cc(-c6ccc7[nH]ccc7n6)c(C6CC6)n5)C4)cc3C2=O)C(=O)N1` (stereo partly drawn) [GS-720, 5-(((Trans-3-(3-cyclopropyl-4-(1H-pyrrolo[3,2-b]pyridin-5-yl)-1H-pyrazol-1-yl)cyclobutyl)methyl)amino)-2-(2,6-dioxopiperidin-3-yl)isoindoline-1,3-dione], the IC50 in experiment [1] (setting [3]) was 100 to 1000 nM; in experiment [1] (setting [4]) it was 10 to 100 nM; in experiment [2] (setting [5]), 10 to 100 nM; in experiment [2] (setting [6]) it was 10 to 100 nM.
In the case of `O=C1CCC(N2C(=O)c3ccc(NC[C@H]4C[C@H](n5cc(Cc6ccccc6)c(C6CC6)n5)C4)cc3C2=O)C(=O)N1` (stereo partly drawn) [GS-735, 5-(((Trans-3-(4-benzyl-3-cyclopropyl-1H-pyrazol-1-yl)cyclobutyl)methyl)amino)-2-(2,6-dioxopiperidin-3-yl)isoindoline-1,3-dione], the IC50 in experiment [1] (setting [7]) is 10 to 100 nM; in experiment [1] (setting [8]), below 10 nM; in experiment [2] (setting [9]) it was 10 to 100 nM; in experiment [2] (setting [10]), below 10 nM.
Take `O=C1CCC(N2C(=O)c3ccc(NC[C@H]4C[C@H](n5cc(-c6cccc(N7CC(O)C7)n6)c(C6CC6)n5)C4)cc3C2=O)C(=O)N1` (stereo partly drawn) [GS-647, 5-(((Trans-3-(3-cyclopropyl-4-(6-(3-hydroxyazetidin-1-yl)pyridin-2-yl)-1H-pyrazol-1-yl)cyclobutyl)methyl)amino)-2-(2,6-dioxopiperidin-3-yl)isoindoline-1,3-dione]: the IC50 in experiment [1] (setting [3]) is above 1000 nM; in experiment [1] (setting [4]), 10 to 100 nM; in experiment [2] (setting [5]), above 1000 nM; in experiment [2] (setting [6]), 100 to 1000 nM.
For the compound `N[C@H]1C[C@H](n2cc3cnc(-c4cn([C@H]5C[C@H](CNc6ccc7c(c6)C(=O)N(C6CCC(=O)NC6=O)C7=O)C5)nc4C4CC4)cc3n2)C1` (stereo partly drawn) [GS-786, 5-(((Trans-3-(4-(2-(trans-3-aminocyclobutyl)-2H-pyrazolo[4,3-c]pyridin-6-yl)-3-cyclopropyl-1H-pyrazol-1-yl)cyclobutyl)methyl)amino)-2-(2,6-dioxopiperidin-3-yl)isoindoline-1,3-dione], the IC50 in experiment [1] (setting [3]) was 10 to 100 nM; in experiment [1] (setting [4]), below 10 nM; in experiment [2] (setting [5]), below 10 nM; in experiment [2] (setting [6]) it was below 10 nM.
Consider `Cn1nccc1Nc1cn([C@H]2C[C@H](CNc3ccc4c(c3)C(=O)N(C3CCC(=O)NC3=O)C4=O)C2)nc1C1CC1` (stereo partly drawn) [GS-784, 5-(((Trans-3-(3-cyclopropyl-4-((1-methyl-1H-pyrazol-5-yl)amino)-1H-pyrazol-1-yl)cyclobutyl)methyl)amino)-2-(2,6-dioxopiperidin-3-yl)isoindoline-1,3-dione], for which the IC50 in experiment [1] (setting [3]) fell in the range of 100 to 1000 nM; in experiment [1] (setting [4]) it was 100 to 1000 nM; in experiment [2] (setting [5]), 100 to 1000 nM; in experiment [2] (setting [6]), 10 to 100 nM.
Consider `O=C1CCC(N2C(=O)c3ccc(NC[C@H]4C[C@H](n5nc(C6CC6)c6ccc(N7CCNCC7)cc65)C4)cc3C2=O)C(=O)N1` (stereo partly drawn) [GS-742, 5-(((Trans-3-(3-cyclopropyl-6-(piperazin-1-yl)-1H-indazol-1-yl)cyclobutyl)methyl)amino)-2-(2,6-dioxopiperidin-3-yl)isoindoline-1,3-dione], for which the IC50 was above 1000 nM in experiment [1] (setting [3]), 100 to 1000 nM in experiment [1] (setting [4]), above 1000 nM in experiment [2] (setting [5]) and 100 to 1000 nM in experiment [2] (setting [6]).
With `CN1CC(n2cc3cnc(-c4cn([C@H]5C[C@H](CNc6ccc7c(c6)C(=O)N(C6CCC(=O)NC6=O)C7=O)C5)nc4C4CC4)cc3n2)C1` (stereo partly drawn) [GS-680, 5-(((Trans-3-(3-cyclopropyl-4-(2-(1-methylazetidin-3-yl)-2H-pyrazolo[4,3-c]pyridin-6-yl)-1H-pyrazol-1-yl)cyclobutyl)methyl)amino)-2-(2,6-dioxopiperidin-3-yl)isoindoline-1,3-dione], the IC50 in experiment [1] (setting [3]) was 10 to 100 nM; in experiment [1] (setting [4]) it was below 10 nM; in experiment [2] (setting [5]), below 10 nM; in experiment [2] (setting [6]), below 10 nM.
With `O=C1CCC(N2C(=O)c3ccc(NC[C@H]4C[C@H](n5cc(-n6ncc7cccnc76)c(C6CC6)n5)C4)cc3C2=O)C(=O)N1` (stereo partly drawn) [GS-777, 5-(((Trans-3-(3-cyclopropyl-4-(1H-pyrazolo[3,4-b]pyridin-1-yl)-1H-pyrazol-1-yl)cyclobutyl)methyl)amino)-2-(2,6-dioxopiperidin-3-yl)isoindoline-1,3-dione], the IC50 is 10 to 100 nM in experiment [1] (setting [3]), below 10 nM in experiment [1] (setting [4]), below 10 nM in experiment [2] (setting [5]) and below 10 nM in experiment [2] (setting [6]).
As for `Cn1ncc2cnc(-c3cn([C@H]4C[C@H](CCc5ccc6c(c5)CN([C@@H]5CCC(=O)NC5=O)C6=O)C4)nc3C3CC3)cc21` [GS-766, 3-(5-(2-(Trans-3-(3-cyclopropyl-4-(1-methyl-1H-pyrazolo[4,3-c]pyridin-6-yl)-1H-pyrazol-1-yl)cyclobutyl)ethyl)-1-oxoisoindolin-2-yl)piperidine-2,6-dione], the IC50 in experiment [1] (setting [3]), in experiment [1] (setting [4]), in experiment [2] (setting [5]) and in experiment [2] (setting [6]) was below 10 nM in each case.
In the case of `O=C1CCC(N2C(=O)c3ccc(NC[C@H]4C[C@H](n5nc(C6CC6)c6c(N7CCNCC7)cccc65)C4)cc3C2=O)C(=O)N1` (stereo partly drawn) [GS-757, 5-(((Trans-3-(3-cyclopropyl-4-(piperazin-1-yl)-1H-indazol-1-yl)cyclobutyl)methyl)amino)-2-(2,6-dioxopiperidin-3-yl)isoindoline-1,3-dione], the IC50 in experiment [1] (setting [3]) and in experiment [2] (setting [5]) was above 1000 nM throughout.
Turning to `Cc1nc(-c2cn([C@H]3C[C@H](CCc4ccc5c(c4)CN(C4CCC(=O)NC4=O)C5=O)C3)nc2C2CC2)ccc1F` (stereo partly drawn) [GS-753, 3-(5-(2-(Trans-3-(3-cyclopropyl-4-(5-fluoro-6-methylpyridin-2-yl)-1H-pyrazol-1-yl)cyclobutyl)ethyl)-1-oxoisoindolin-2-yl)piperidine-2,6-dione], the IC50 is 100 to 1000 nM in experiment [1] (setting [3]), 10 to 100 nM in experiment [1] (setting [4]), 10 to 100 nM in experiment [2] (setting [5]) and below 10 nM in experiment [2] (setting [6]).
In the case of `CC(C)n1ccc2ccc(-c3cn([C@H]4C[C@H](CNc5ccc6c(c5)C(=O)N(C5CCC(=O)NC5=O)C6=O)C4)nc3C3CC3)nc21` (stereo partly drawn) [GS-737, 5-(((Trans-3-(3-cyclopropyl-4-(1-isopropyl-1H-pyrrolo[2,3-b]pyridin-6-yl)-1H-pyrazol-1-yl)cyclobutyl)methyl)amino)-2-(2,6-dioxopiperidin-3-yl)isoindoline-1,3-dione], the IC50 lay within 100 to 1000 nM in experiment [1] (setting [7]), 10 to 100 nM in experiment [1] (setting [8]), 10 to 100 nM in experiment [2] (setting [9]) and 10 to 100 nM in experiment [2] (setting [10]).
As for `O=C1CCC(N2C(=O)c3ccc(NCCC4CC5(C4)CC(n4nc(C6CC6)c6ccccc64)C5)cc3C2=O)C(=O)N1` (centres unmarked) [GS-783, 5-((2-(6-(3-Cyclopropyl-1H-indazol-1-yl)spiro[3.3]heptan-2-yl)ethyl)amino)-2-(2,6-dioxopiperidin-3-yl)isoindoline-1,3-dione], the IC50 in experiment [1] (setting [3]), in experiment [1] (setting [4]), in experiment [2] (setting [5]) and in experiment [2] (setting [6]) was 10 to 100 nM throughout.
`Cn1cc2c(-c3cn([C@H]4C[C@H](CNc5ccc6c(c5)C(=O)N(C5CCC(=O)NC5=O)C6=O)C4)nc3C3CC3)ncc(F)c2n1` (stereo partly drawn) [GS-790, 5-(((Trans-3-(3-cyclopropyl-4-(7-fluoro-2-methyl-2H-pyrazolo[4,3-c]pyridin-4-yl)-1H-pyrazol-1-yl)cyclobutyl)methyl)amino)-2-(2,6-dioxopiperidin-3-yl)isoindoline-1,3-dione]: the IC50 was 10 to 100 nM in experiment [1] (setting [3]), below 10 nM in experiment [1] (setting [4]), below 10 nM in experiment [2] (setting [5]) and below 10 nM in experiment [2] (setting [6]).
On to `Nc1ccnc2c1c(C1CC1)nn2[C@H]1C[C@H](CNc2ccc3c(c2)C(=O)N(C2CCC(=O)NC2=O)C3=O)C1` (stereo partly drawn) [GS-762, 5-(((Trans-3-(4-amino-3-cyclopropyl-1H-pyrazolo[3,4-b]pyridin-1-yl)cyclobutyl)methyl)amino)-2-(2,6-dioxopiperidin-3-yl)isoindoline-1,3-dione], for which the IC50 in experiment [1] (setting [3]) and in experiment [2] (setting [5]) was above 1000 nM throughout.
